From ChEMBL document CHEMBL5053547, “Targeting of the FOXM1 Oncoprotein by E3 Ligase-Assisted Degradation” (J Med Chem, 2021)
Activity calls are given as the source filed them. The rule behind the calls is not given here.

Experiments:
MDA-MB-231 [1] = assay: Antiproliferative activity against human MDA-MB-231 cells assessed as growth inhibition by MTT assay; assay type: functional
MDA-MB-231 [2] = assay: Reduction in FOXM1 expression in mouse xenografted with human MDA-MB-231 cells at 10 mg/kg/day administered through tail vain for 12 consecutive days by Western blot analysis; assay type: functional, organism-based; settings: route iv
Forkhead box protein M1 = biological target: T1, Forkhead box protein M1 (Homo sapiens, UniProt Q08050); assay: Inhibition of recombinant FOXM1-DBD (unknown origin) binding to DNA measured after 30 mins by biochemical EMSA assay
T1 sequence (Q08050 whole entry): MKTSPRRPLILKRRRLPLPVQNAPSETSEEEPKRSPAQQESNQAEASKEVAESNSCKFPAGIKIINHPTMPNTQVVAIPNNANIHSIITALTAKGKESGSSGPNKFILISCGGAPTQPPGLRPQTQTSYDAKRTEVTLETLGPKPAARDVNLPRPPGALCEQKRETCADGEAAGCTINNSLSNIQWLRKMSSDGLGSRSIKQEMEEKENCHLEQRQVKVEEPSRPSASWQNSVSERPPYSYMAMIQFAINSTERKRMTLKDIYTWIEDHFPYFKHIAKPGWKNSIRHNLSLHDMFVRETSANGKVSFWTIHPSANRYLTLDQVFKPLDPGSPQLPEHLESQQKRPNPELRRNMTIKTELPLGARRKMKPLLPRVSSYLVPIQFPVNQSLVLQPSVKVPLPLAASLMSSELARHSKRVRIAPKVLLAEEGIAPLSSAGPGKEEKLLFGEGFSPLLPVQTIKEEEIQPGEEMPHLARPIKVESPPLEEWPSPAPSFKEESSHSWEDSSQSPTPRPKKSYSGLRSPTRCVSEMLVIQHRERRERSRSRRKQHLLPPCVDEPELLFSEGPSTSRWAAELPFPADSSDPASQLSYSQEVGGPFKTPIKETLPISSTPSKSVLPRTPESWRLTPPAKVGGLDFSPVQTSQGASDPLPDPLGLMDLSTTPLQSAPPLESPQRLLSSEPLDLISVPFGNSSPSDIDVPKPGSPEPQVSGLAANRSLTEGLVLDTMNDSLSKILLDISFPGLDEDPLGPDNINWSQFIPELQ

MDA-MB-231 [3] = assay: Induction of cell cycle arrest in human MDA-MB-231 cells assessed as accumulation at S phase at 20 uM incubated for 16 hrs by flow cytometry assay (reference value: 22.19%); assay type: functional
MDA-MB-231 [4] = assay: Induction of cell cycle arrest in human MDA-MB-231 cells assessed as accumulation at G2/M phase at 20 uM incubated for 16 hrs by flow cytometry assay (reference value: 12.30%); assay type: functional
MDA-MB-231 [5] = assay: Reduction in beta-catenin nuclear accumulation in human MDA-MB-231 cells at 20 uM incubated for 16 hrs by Western blot analysis; assay type: functional, cell-based
MDA-MB-231 [6] = assay: Antitumor activity against human MDA-MB-231 cells xenografted in mouse assessed as […] by measuring Ki67 labelling at 10 mg/kg/day administered through tail vain for 12 consecutive days by immunohistochemical analysis; assay type: functional, organism-based; settings: route iv
MDA-MB-231 [7] = assay: Induction of cell cycle arrest in human MDA-MB-231 cells assessed as accumulation at G0/G1 phase at 20 uM incubated for 16 hrs by flow cytometry assay (reference value: 65.49%); assay type: functional
MDA-MB-231 [8] = assay: In vivo antitumor activity against human MDA-MB-231 cells xenografted in mouse assessed as tumor growth inhibition at 10 mg/kg/day administered through tail vain for 12 consecutive days; assay type: functional; settings: route iv, read-out: TGI
MDA-MB-231 [9] = assay: Antitumor activity against human MDA-MB-231 cells xenografted in mouse assessed as tumor shrinkage at 10 mg/kg/day administered through tail vain for 12 consecutive days by H and E staining based histological analysis; assay type: functional, organism-based; settings: route iv
MDA-MB-231 [10] = assay: Downregulation of CDC25B expression in human MDA-MB-231 cells at 20 uM incubated for 16 hrs by Western blot analysis; assay type: functional, cell-based
MDA-MB-231 [11] = assay: Downregulation of Cyclin B expression in human MDA-MB-231 cells at 20 uM incubated for 16 hrs by Western blot analysis; assay type: functional, cell-based
[12] = Stability in human plasma assessed as half life by LC/MS analysis; assay type: ADME, cell-free
Mus musculus = assay: Toxicity in mouse xenografted with human MDA-MB-231 cells assessed as change in body weight at 10 mg/kg/day administered through tail vain for 12 consecutive days; assay type: organism-based; settings: in vivo, iv
MDA-MB-231 [13] = assay: Anti-invasive activity against human MDA-MB-231 cells assessed as decrease in MMP2 gene expression incubated for 16 hrs by qRT-PCR analysis; assay type: functional, cell-based; settings: dose 10-20 µM
MDA-MB-231 [14] = assay: Anti-invasive activity against human MDA-MB-231 cells assessed as increase in E-cadherin mRNA expression incubated for 16 hrs by qRT-PCR analysis; assay type: functional, cell-based; settings: dose 10-20 µM
MDA-MB-231 [15] = assay: Anti-invasive activity against human MDA-MB-231 cells assessed as reduction invasion incubated by transwell assay; assay type: functional, cell-based; settings: dose 10-20 µM
[16] = Stability in rat plasma assessed as half life by LC/MS analysis; assay type: ADME, cell-free
MDA-MB-231 [17] = assay: Anti-invasive activity against human MDA-MB-231 cells assessed as decrease in Snail gene expression incubated for 16 hrs by qRT-PCR analysis; assay type: functional, cell-based; settings: dose 10-20 µM
MDA-MB-231 [18] = assay: Anti-invasive activity against human MDA-MB-231 cells assessed as reduction migration incubated by transwell assay; assay type: functional, cell-based; settings: dose 10-20 µM
MDA-MB-231 [19] = assay: Anti-invasive activity against human MDA-MB-231 cells assessed as decrease in Slug gene expression incubated for 16 hrs by qRT-PCR analysis; assay type: functional, cell-based; settings: dose 10-20 µM
MDA-MB-231 [20] = assay: Antineoplastic effect in human MDA-MB-231 cells xenografted in mouse assessed as reduction in tumor volume at 10 mg/kg/day administered through tail vain for 12 consecutive days; assay type: functional, organism-based; settings: route iv
[21] = Stability in mouse plasma assessed as half life by LC/MS analysis; assay type: ADME, cell-free
MCF7 = assay: Antiproliferative activity against human MCF7 cells assessed as cell viability measured at 10 uM; assay type: functional, cell-based
MDA-MB-231 [22] = assay: Anti-invasive activity against human MDA-MB-231 cells assessed as decrease in Vimentin gene expression incubated for 16 hrs by qRT-PCR analysis; assay type: functional, cell-based; settings: dose 10-20 µM
MCF-10A = assay: Cytotoxicity against human MCF-10A cells assessed as cell viability measured upto 30 uM; assay type: cell-based

Nc1c(C(=O)Nc2ccc(F)cc2)sc2nc(-c3ccc(OCC(=O)NCCCOCCOCCOCCCNc4cccc5c4C(=O)N(C4CCC(=O)NC4=O)C5=O)cc3)cc(C(F)(F)F)c12 (centres undefined)
GI50 (MDA-MB-231 [1]): > 50 µM

Nc1c(C(=O)Nc2ccc(F)cc2)sc2nc(-c3ccc(OCC(=O)NCCCNc4cccc5c4C(=O)N(C4CCC(=O)NC4=O)C5=O)cc3)cc(C(F)(F)F)c12 (centres undefined)
GI50 (MDA-MB-231 [1]): 45.4 µM

Nc1c(C(=O)Nc2ccc(F)cc2)sc2nc(-c3cccs3)cc(C(F)(F)F)c12
Activity (MDA-MB-231 [2]): Active | IC50 (Forkhead box protein M1): 28.4 µM | Activity (MDA-MB-231 [3]): 16.17% | Activity (MDA-MB-231 [4]): 16.32% | Activity (MDA-MB-231 [5]): inactive | Activity (MDA-MB-231 [6]): Active | Activity (MDA-MB-231 [7]): 57.52% | GI50 (MDA-MB-231 [1]): 25.6 µM | inhibition in vivo at 10 mg/kg/day (MDA-MB-231 [8]): 47.8% | Activity (MDA-MB-231 [9]): Active

COc1ccc(-c2cc(C(F)(F)F)c3c(N)c(C(=O)Nc4ccc(F)cc4)sc3n2)cc1
GI50 (MDA-MB-231 [1]): 27.3 µM

CN1C(=O)CCC(N2C(=O)c3cccc(OCC(=O)NCCCOCCOCCOCCCNC(=O)COc4ccc(-c5cc(C(F)(F)F)c6c(N)c(C(=O)Nc7ccc(F)cc7)sc6n5)cc4)c3C2=O)C1=O (centres undefined)
Activity (MDA-MB-231 [10]): inactive | Activity (MDA-MB-231 [3]): 24.35% | Activity (MDA-MB-231 [4]): 18.2% | Activity (MDA-MB-231 [5]): inactive | Activity (MDA-MB-231 [7]): 57.44% | Activity (MDA-MB-231 [11]): inactive

Nc1c(C(=O)Nc2ccc(F)cc2)sc2nc(-c3ccc(OCC(=O)NCCCCCCCCNc4cccc5c4C(=O)N(C4CCC(=O)NC4=O)C5=O)cc3)cc(C(F)(F)F)c12 (centres undefined)
GI50 (MDA-MB-231 [1]): > 50 µM

Nc1c(C(=O)Nc2ccc(F)cc2)sc2nc(-c3ccc(OCC(=O)NCCCCCCCCNC(=O)COc4cccc5c4C(=O)N(C4CCC(=O)NC4=O)C5=O)cc3)cc(C(F)(F)F)c12 (centres undefined)
GI50 (MDA-MB-231 [1]): 38.6 µM

Nc1c(C(=O)Nc2ccc(F)cc2)sc2nc(-c3ccc(OCC(=O)NCCCNC(=O)COc4cccc5c4C(=O)N(C4CCC(=O)NC4=O)C5=O)cc3)cc(C(F)(F)F)c12 (centres undefined)
GI50 (MDA-MB-231 [1]): 17.4 µM

Nc1c(C(=O)Nc2ccc(F)cc2)sc2nc(-c3ccc(OCC(=O)NCCOCCOCCNc4cccc5c4C(=O)N(C4CCC(=O)NC4=O)C5=O)cc3)cc(C(F)(F)F)c12 (centres undefined)
GI50 (MDA-MB-231 [1]): > 50 µM

Nc1c(C(=O)Nc2ccc(F)cc2)sc2nc(-c3ccc(OCC(=O)NCCOCCOCCNC(=O)COc4cccc5c4C(=O)N(C4CCC(=O)NC4=O)C5=O)cc3)cc(C(F)(F)F)c12 (centres undefined)
GI50 (MDA-MB-231 [1]): 19.5 µM

Nc1c(C(=O)Nc2ccc(F)cc2)sc2nc(-c3ccc(OCC(=O)NCCCOCCOCCOCCCNC(=O)COc4cccc5c4C(=O)N(C4CCC(=O)NC4=O)C5=O)cc3)cc(C(F)(F)F)c12 (centres undefined)
half-life [12]: 1.74 h | Activity (Mus musculus): Non-Toxic | Activity (MDA-MB-231 [2]): Active | Activity (MDA-MB-231 [13]): Dose-dependent effect | Activity (MDA-MB-231 [14]): Dose-dependent effect | Activity (MDA-MB-231 [10]): Active | Activity (MDA-MB-231 [15]): Dose-dependent effect | Activity (MDA-MB-231 [3]): 21.75% | Activity (MDA-MB-231 [4]): 20% | Activity (MDA-MB-231 [5]): Active | half-life [16]: 0.588 h | Activity (MDA-MB-231 [17]): Dose-dependent effect | Activity (MDA-MB-231 [18]): Dose-dependent effect | Activity (MDA-MB-231 [6]): Active | Activity (MDA-MB-231 [19]): Dose-dependent effect | Activity (MDA-MB-231 [20]): Active | half-life [21]: > 2 h | Activity (MDA-MB-231 [7]): 57.92% | Activity (MCF7): Active | Activity (MDA-MB-231 [11]): Active | GI50 (MDA-MB-231 [1]): 16.2 µM | Activity (MDA-MB-231 [22]): Dose-dependent effect | inhibition in vivo at 10 mg/kg/day (MDA-MB-231 [8]): 78.2% | Activity (MDA-MB-231 [9]): Active | Activity (MCF-10A): Non-Toxic
